Results: publication PMC546329, “SIRT1 Regulates HIV Transcription via Tat Deacetylation” (PLoS Biology, 2005)

Target: T1, SIRT1 (Homo sapiens, UniProt Q96EB6)
T1 construct: FLAG-tagged SIRT1 immunoprecipitated from HEK 293 cells
T1 sequence (Q96EB6 2-747): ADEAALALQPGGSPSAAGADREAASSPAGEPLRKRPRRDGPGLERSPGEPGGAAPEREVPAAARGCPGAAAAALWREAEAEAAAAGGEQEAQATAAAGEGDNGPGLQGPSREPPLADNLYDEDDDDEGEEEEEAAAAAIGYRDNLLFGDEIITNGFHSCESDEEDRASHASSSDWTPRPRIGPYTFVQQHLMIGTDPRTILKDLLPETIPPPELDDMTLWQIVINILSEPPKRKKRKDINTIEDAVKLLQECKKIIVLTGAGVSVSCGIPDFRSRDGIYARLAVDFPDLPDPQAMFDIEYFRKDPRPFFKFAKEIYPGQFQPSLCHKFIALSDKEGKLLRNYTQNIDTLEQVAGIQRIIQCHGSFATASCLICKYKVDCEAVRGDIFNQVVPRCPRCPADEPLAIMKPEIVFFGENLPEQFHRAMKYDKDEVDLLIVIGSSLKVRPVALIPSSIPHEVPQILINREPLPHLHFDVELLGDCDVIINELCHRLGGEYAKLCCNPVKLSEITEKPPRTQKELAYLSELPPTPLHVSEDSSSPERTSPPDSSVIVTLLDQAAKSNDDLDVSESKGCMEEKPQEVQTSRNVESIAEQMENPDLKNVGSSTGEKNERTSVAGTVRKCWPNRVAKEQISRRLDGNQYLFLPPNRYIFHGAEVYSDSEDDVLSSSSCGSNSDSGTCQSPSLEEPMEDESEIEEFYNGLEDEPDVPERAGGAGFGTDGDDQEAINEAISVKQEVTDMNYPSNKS
Assay: deacetylation of synthetic acetylated Tat by immunoprecipitated SIRT1 with or without […] NAD+, Western blot
Type: biochemical

In the case of `NC(=O)c1ccc[n+]([C@@H]2O[C@H](COP(=O)([O-])OP(=O)(O)OC[C@H]3O[C@@H](n4cnc5c(N)ncnc54)[C@H](O)[C@@H]3O)[C@@H](O)[C@H]2O)c1` [NAD^+], the “deacetylation of synthetic acetylated Tat by immunoprecipitated SIRT1 with or wi” value is reported as “The SIRT1-mediated deacetylation of Tat was dependent on NAD^+”.
